Data taken from US20250009716A1, “NOVEL INHIBITORS OF CLAUDIN-1 FOR THERAPEUTIC INTERVENTIONS” (BOARD OF REGENTS OF THE UNIVERSITY OF NEBRASKA, priority 2021, published 2025).

How the values were obtained:
Format in all cases: cell-based
[1] = system: p-Src and c-PARP in SW480claudin-1 overexpressing cells; experiment: Expression of p-Src, Src and c-PARP
Text: (§1) To this end, a library of molecules was synthesized in order to develop an initial SAR evaluation. The first compounds tested eliminated the acylated (thio) urea as well as the napthyl group and evaluated just the urea/phenyl compounds (Compounds 1-6). The methoxy group of the naphthalene ring system was needed when the benzimidazole group was present (16 vs. Compound 8). […] The result of metabolic stability was expressed as the percentage of drug remaining at each time. […] To further determine the effect of PDS-0330 on p-Src expression and association, cells were treated with Compound 1, 16 and PDS-0330. Expression and association with p-Src was unaffected with Compound 1 (negative control). The specificity of PDS-0330 for CLDN1 was further confirmed by treating SW480^CLDN1, HCT116^CLDN2 (overexpressing another tight junction protein) or normal IEC-6 cells with PDS-0330 (FIG. 12).
Furthermore, DLD-1 chemoresistant cells were treated with PDS-0330 and I-6. […] Based on the in vitro activity and metabolic stability, PDS-0330, and any potential new analogs will be evaluated in animal models to determine the pharmacokinetic properties and biodistribution as described in preliminary data.

[2] = system: SW480claudin-1 cells; experiment: Resistance to anoikis in claudin-1 overexpressing cells; settings: 72 h treatment
Text: The crystal structure of claudin-1 is unknown. Therefore, an in-silico protein folding program, YASARA, was used to identify an effective claudin-1 inhibitor. The resultant 3D-structure was then modeled using Molegro Virtual Docker (MVD) software program. These in-silico analyses identified putative cavities in the claudin-1 protein that can be targeted by small molecule inhibitors. Next, a 100K library of small molecules was screened in silico using the MVD. The top 10 inhibitors that bound to the Site #3 (targeting near c-terminal domain; the most accessible pocket; FIG. 2A) with the best binding energies were selected as hits and used for further testing. Screening of these inhibitors named Inihibitor-1 (1-1) to Inhibitor-10 (I-10) was done using SW480claudin-1, SW620 and control cells. Claudin-1 deficient HCT116 cells (WT-APC) or SW620shRNAcld-1 were used as negative controls. Resistance to anoikis and cell invasion was used as biological end-points in testing these inhibitors. […] 16 has the following structure:
as §1

[3] = target: T1, claudin-1/Src complex in SW480claudin-1 cells (Homo sapiens, UniProt O95832); experiment: Claudin-1/Src association (proximity ligation assay, Co-IP); settings: PLA, Co-IP or immuno-precipitation
T1 construct: claudin-1 was expressed in a non-metastatic CRC cell line, SW480 cells; expressed in transfected cells; host or cells: SW480 colorectal cancer cells expressing claudin-1 (SW480claudin-1)
T1 sequence (O95832 1-211): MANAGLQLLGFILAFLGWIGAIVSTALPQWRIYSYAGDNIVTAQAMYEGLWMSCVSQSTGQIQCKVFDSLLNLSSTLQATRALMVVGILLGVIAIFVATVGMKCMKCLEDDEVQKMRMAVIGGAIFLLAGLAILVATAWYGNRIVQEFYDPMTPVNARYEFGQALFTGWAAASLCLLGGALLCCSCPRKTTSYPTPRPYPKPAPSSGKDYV
Text: The CSC cells contribute to the generation of metastasis (16-19), and key CSC characteristics are highly relevant to metastasis, including invasive motility, and, resistance to apoptosis (20,21). […] Considering that chemoresistance is central to the CRC progression and metastasis, we further tested if adjuvant use of 16 with 5FU can have significant bearing upon these traits. Colon cancer cells were subjected to exogenous administration of 16 alone, or in combination with the 5-FU, the conventional anti-CRC drug. […] To further determine the mechanistic details the effect of 16 on association of claudin-1 and Src, SW480claudin-1 cells were treated with 16 or the vehicle and resultant cell lysate was subjected to Proximity ligation assay (PLA) or Co—IP.

claudin-1/Src (p-Src) association [3]: unaffected
SMILES: COc1ccccc1NC(=O)Nc1ccc(-c2nc3ccccc3[nH]2)cc1 [Compound 1]
p-Src expression [1]: unaffected
effect on resistance to anoikis [2]: not much change
